Results: patent US6503542B2, “Herbal compositions for treating immunological disorders” (GloboAsia, L.L.C., priority 2000, dated 2003)

Assays:
Assay type in all cases: in vivo, BALB/c mice
Conditions in all cases: FIG. 10; comparison with conventional asthma drugs
IgG2a = assay: ELISA determination of Der p 5-specific IgG (IgG2a) in serum of Der p 5 sensitized mice
From the text: (§1) The effects of the STA-36 and STA-4 herbal composition as well as individual herbs on suppression of allergen-induced immunoglobulin G (IgG), immunoglobulin E (IgE), interleukin-4 (IL-4), and interferon γ (IFN-γ) were investigated using BALB/c mice sensitized with D.P. (Dermatophagoides pteronyssimus) allergen “Der p 5”. Dermatophagoides pteronyssimus is the house dust mite which acts as an antigen and produces an allergic asthmatic reaction in atopic person.
(§2) Female BALB/c mice aged between 4 and 6 weeks and weighed about 20 g were obtained from the National Animal-breeding Center, Republic of China and used in the studies. Mice were age- and sex- matched for each experiment.
(§3) BALB/c mice were initially intraperitoneally sensitized with 10 μg of Dermatophagoides pteronyssimus group 5 (“Der p 5”) allergen and 4 mg of aluminium hydroxide (Wyeth Pharmaceuticals, Punchbowl, Australia). Seven (7) days after the first sensitization, mice, except the placebo control group, were fed with STA-36 and STA-4 herbal compositions until the end of the twenty-first day.
(§4) At the end of the twenty first day, the mice were given a second booster injection of Der p 5. Forty eight (48) hours after the second booster injection, mice were placed in a round plastic container where the mice were further challenged by 0.1% Der p 5 spray.
(§5) Several hours after the challenge, the mouse was anaesthetized using 100 mg/ml phenobarbital. […]
(§6) The amount of Der p 5-specific IgG and IgE were determined by Enzyme Linked Immunosorbent Assay (ELISA). […]
(§7) Avidin-alkaline phosphatase (1:1000) (Strptavidin-AP, PharMinge 13043E) was then added and incubated for 1 hour at 25° C., followed by six (6) washes. […] Plates were read in a microplate autoreader (ELISA reader, Dynex MRX) at 405 nm. Readings were referenced to commercial isotypes standards which were mouse anti-TNP mAb, IgG1 (107.3), IgG2a (G155-178), and IgE (IgE-3).
(§8) All of the data contained in the experiments were calculated as “mean±SEM.” Trachea resistance change induced by acetylcholine after converted to PC 100 was measured as μg/kg. […]

IgE = assay: ELISA determination of Der p 5-specific IgE in serum of Der p 5 sensitized mice
From the text: as §1, §2, §3, §4, §5, §6, §7, §8

IL-4 = assay: ELISA determination of IL-4 in fluid of pulmonary alveoli of Der p 5 sensitized mice
From the text: as §1, §2, §3, §4
(§9) Several hours after the challenge, the mouse was anaesthetized using 100 mg/ml phenobarbital. Blood was collected from the tail vein or heart. […]
(§10) One hundred (100) μl of the supernatant from the fluid of pulmonary alveoli were then added to the microwells, together with cytokine standard solution, for overnight reaction at 4° C. […] Plates were read in a microplate autoreader (ELISA reader, Dynex MRX) at 405 nm.
as §8

IFN-γ = assay: ELISA determination of IFN-γ in fluid of pulmonary alveoli of Der p 5 sensitized mice
From the text: as §1, §2, §3, §4, §9, §10, §8

| Compound | effect on IgG (IgG2a) vs control (IgG2a) | effect on IgE vs control (IgE) | effect on IL-4 vs control (IL-4) | effect on IFN-γ vs control (IFN-γ) |
| --- | --- | --- | --- | --- |
| Cn1c(=O)c2[nH]cnc2n(C)c1=O.Cn1c(=O)c2[nH]cnc2n(C)c1=O.NCCN [aminophline] | only STA-4 demonstrated significant decreased in IgE and significant increase in IgG | only STA-4 demonstrated significant decreased in IgE | only STA-4 demonstrated significant decreased in IgE and significant increase in IgG, IL-4 | only STA-4 demonstrated significant decreased in IgE and significant increase in IgG, IL-4, and IFN-γ |
| CN1CCC(=C2c3ccccc3CC(=O)c3sccc32)CC1 [ketotifen] | only STA-4 demonstrated significant decreased in IgE and significant increase in IgG | only STA-4 demonstrated significant decreased in IgE | only STA-4 demonstrated significant decreased in IgE and significant increase in IgG, IL-4 | only STA-4 demonstrated significant decreased in IgE and significant increase in IgG, IL-4, and IFN-γ |
| C[C@]12C=CC(=O)C=C1CC[C@@H]1[C@@H]2[C@@H](O)C[C@@]2(C)[C@H]1CC[C@]2(O)C(=O)CO [prednisolone] | only STA-4 demonstrated significant decreased in IgE and significant increase in IgG | only STA-4 demonstrated significant decreased in IgE | only STA-4 demonstrated significant decreased in IgE and significant increase in IgG, IL-4 | only STA-4 demonstrated significant decreased in IgE and significant increase in IgG, IL-4, and IFN-γ |
